Measured values as given in article PMC5177629, “Selective Estrogen Receptor Modulators: Cannabinoid Receptor Inverse Agonists with Differential CB1 and CB2 Selectivity” (Frontiers in Pharmacology, 2016).
“Also recorded” adds a separate entry of the source. Marks after values point to notes of the source that are not given here.

How the values were obtained:
[1] = target: T1, human cannabinoid type-1 receptors (hCB1) (Homo sapiens, UniProt P21554); experiment: Antagonism of CP-55,940 inhibition of adenylyl cyclase, intact CHO-hCB1 cells; type: cell-based
T1 construct: host or cells: CHO cells (CHO-hCB1), membranes or intact cells
Experimental: (§1) Briefly, cells cultured between passages 4 and 15 were seeded into 24-well plates at a concentration of 6.5 million cells per plate and incubated overnight in a humidified incubator maintained at 37°C and 5% CO2. Growth media was removed the next day and replaced with media containing […] [^3H]adenine, 0.9g/L NaCl, and 0.5 mM isobutyl-methyl-xanthine (IBMX) for 2–3 h. Radioactive media was then removed and each well treated with 0.5 ml of varying concentrations of SERM compounds in a Krebs-Ringer-HEPES solution (10 mM HEPES, 110 mM NaCl, 25 mM Glucose, 55 mM Sucrose, 5 mM KCl, 1 mM MgCl2, 1.8 mM CaCl2, pH 7.4) containing 0.5 mM IBMX and 10 μM forskolin. Plates were then floated in a 37°C water bath for 15 min before reactions were terminated by addition of 50 μL of 2.2 N HCl to each well.
(§2) Reactions were then terminated by adding 50 μL of 2.2 N HCl to each well. [^3H]cAMP was isolated using alumina column chromatography and radioactivity quantified following addition of 10 mls of scintiverseTM BD cocktail scintillation fluid (Fisher Scientific, Pittsburg, PA, USA) by liquid scintillation spectrophotometry (Tri Carb 2100 TR Liquid Scintillation Analyzer, Packard Instrument Company, Meriden, CT, USA).
(§3) Statistical analyses were conducted by utilizing GraphPad Prism v6.0g (GraphPad Software, Inc.; San Diego, CA, USA). IC50 values from competition receptor binding curves were derived by non-linear regression. […] Non-linear regression analysis of concentration-effect curves was also used to determine potency (ED50 or IC50) and efficacy (Emax or Imax) for modulation of GTPγS and adenylyl cyclase activity, respectively. All IC50, EC50, Ki, and Kb values were converted to pEC50, pIC50, pKi, and pKb values in order to permit use of parametric statistical analyses. For all experiments comparing three or more values, an one-way ANOVA was employed, followed by Dunnett’s or Tukey’s post hoc tests. For comparisons of two values, an unpaired t-test was utilized. To determine significant radioligand displacement or modulation of G-protein activity compared to basal levels, a one-sample t-test was employed.
(§4) IC50 and Kb values were converted to pIC50 and pKb values (pIC50 = -Log[IC50] or pKb = -Log[Kb], respectively) to allow use of parametric statistics for comparison.

[2] = target: T2, human cannabinoid type-2 receptors (hCB2) (Homo sapiens, UniProt P34972); experiment: Competition receptor binding with [3H]CP-55,940, CHO-hCB2 membranes; conditions: single 1 μM concentration, 0.2 nM [3H]CP-55,940, CHO-hCB2
T2 construct: expressed in transfected cells; host or cells: CHO cells (CHO-hCB2), membranes or intact cells
Experimental: Membrane homogenates were prepared for competition receptor binding and [^35S]GTPγS binding studies by using pellets previously frozen of CHO-hCB1 or CHO-hCB2 cells as described in ([Franks et al., 2014]). In short, pellets were thawed on ice, combined in a 40 ml glass Dounce homogenizer and homogenized in 20 ml of cold buffer (50 mM HEPES at pH 7.4, 3 mM MgCl2, and 1 mM EGTA) using 10 strokes. Homogenates were then centrifuged at 40,000 × g for 10 min at 4°C. After discarding the supernatant, pellets were homogenized and centrifuged twice more. Final pellets were re-suspended in ice-cold 50 mM HEPES, pH 7.4, aliquoted and stored at -80°C for future use. Protein concentration was determined the same day, prior to freezing, using BCA^TM Protein Assay (Thermo Fisher Scientific, Waltham, MA, USA).
(§5) The final volume of each sample was 1 ml, containing 50 mM Tris-HCl buffer (pH 7.4), 0.05% bovine serum albumin, 5 mM MgCl2, increasing concentrations of non-radioactive competing SERM ligands, and either 100 μg of CHO-hCB1 or 50 μg of CHO-hCB2 membrane homogenates. Non-specific binding was defined by radioactivity remaining in the presence of 1 μM of the non-radioactive CB1/CB2 agonist WIN-55,212-2. Each sample condition was performed in triplicate and allowed to reach equilibrium at room temperature for 90 min. Reactions were terminated by rapid vacuum filtration through Whatman GF/B glass fiber filters (Brandel, Inc.), followed by four 4 ml washes of ice-cold filtration buffer (50 mM Tris at pH 7.4 and 0.05% BSA). Filter punches of individual samples were placed in scintillation vials containing 4 mls of ScintiverseTM BD cocktail scintillation fluid (Fisher Scientific, Pittsburg, PA, USA). Final counts were determined using liquid scintillation spectrophotometry (Tri Carb 2100 TR Liquid Scintillation Analyzer, Packard Instrument Company, Meriden, CT, USA) after overnight incubation.
Statistical analyses were conducted by utilizing GraphPad Prism v6.0g (GraphPad Software, Inc.; San Diego, CA, USA). IC50 values from competition receptor binding curves were derived by non-linear regression. Experimental IC50 values were converted to Ki values (a measure of receptor affinity) by using the Cheng–Prusoff equation ([Cheng and Prusoff, 1973]). Non-linear regression analysis of concentration-effect curves was also used to determine potency (ED50 or IC50) and efficacy (Emax or Imax) for modulation of GTPγS and adenylyl cyclase activity, respectively. All IC50, EC50, Ki, and Kb values were converted to pEC50, pIC50, pKi, and pKb values in order to permit use of parametric statistical analyses. For all experiments comparing three or more values, an one-way ANOVA was employed, followed by Dunnett’s or Tukey’s post hoc tests. For comparisons of two values, an unpaired t-test was utilized. To determine significant radioligand displacement or modulation of G-protein activity compared to basal levels, a one-sample t-test was employed.
(§6) For initial comparison of potential SERM binding to CBRs, 14 commercially available compounds from 5 structurally distinct classes (Figure 1) were subjected to a radioligand binding screen (Figure 2).

[3] = target: T1, human cannabinoid type-1 receptors (hCB1); experiment: Competition receptor binding with [3H]CP-55,940, CHO-hCB1 membranes; conditions: single 1 μM concentration, 0.2 nM [3H]CP-55,940, CHO-hCB1
Experimental: (§7) In short, pellets were thawed on ice, combined in a 40 ml glass Dounce homogenizer and homogenized in 20 ml of cold buffer (50 mM HEPES at pH 7.4, 3 mM MgCl2, and 1 mM EGTA) using 10 strokes. Homogenates were then centrifuged at 40,000 × g for 10 min at 4°C. After discarding the supernatant, pellets were homogenized and centrifuged twice more. Final pellets were re-suspended in ice-cold 50 mM HEPES, pH 7.4, aliquoted and stored at -80°C for future use. Protein concentration was determined the same day, prior to freezing, using BCA^TM Protein Assay (Thermo Fisher Scientific, Waltham, MA, USA).
as §5, with “Non-specific binding was defined by radioactivity remaining in the presence of 1 μM of the non-radioactive CB1/CB2 agonist WIN-55,212-2.” left out
as §3, §6

[4] = target: T2, human cannabinoid type-2 receptors (hCB2); experiment: [35S]GTPγS binding, CHO-hCB2 membranes; type: biochemical; conditions: for intrinsic activity at hCB2Rs (partial or full inverse agonist): [35S]GTPγS binding, CHO-hCB2, 10 μM, compared with AM-630
Experimental: as §7
(§8) Non-specific binding was defined by radioactivity remaining in the presence of 10 μM of non-radioactive GTPγS. All reactions were incubated for 30 min at 30°C, terminated by filtration through Whatman GF/B glass fiber filters (Brandel, Inc.) and followed by four 4 ml washes of ice cold filtration buffer (50 mM HEPES, pH 7.4) containing 0.1% bovine serum albumin. Filter punches of individual samples were placed in scintillation vials containing 4 mls of ScintiverseTM BD cocktail scintillation fluid (Fisher Scientific, Pittsburg, PA, USA). Final counts were determined using liquid scintillation spectrophotometry (Tri Carb 2100 TR Liquid Scintillation Analyzer, Packard Instrument Company, Meriden, CT, USA) after overnight incubation.
as §3
(§9) CBRs are coupled to Gi/Go type G-proteins. Therefore, binding of agonists to CBRs leads to G-protein activation, antagonists produce no effect, and inverse agonists reduce basal G-protein activity produced by constitutively active receptors. SERMs were screened by examining the ability of a single receptor saturating concentration (10 μM) to modulate G-protein activity in membranes prepared from CHO-hCB1 and CHO-hCB2 cells. G-protein activation was quantified using employing [^35S]GTPγS, a non-hydrolyzable analog of GTP, that irreversibly binds to the G-proteins when activated.

[5] = target: T1, human cannabinoid type-1 receptors (hCB1); experiment: [35S]GTPγS binding, CHO-hCB1 membranes; type: biochemical; conditions: [35S]GTPγS binding, CHO-hCB1, compared with AM-251
Experimental: as §7, §8, §3, §9

[6] = target: T2, human cannabinoid type-2 receptors (hCB2); experiment: Adenylyl cyclase assay (forskolin-stimulated cAMP), intact CHO-hCB2 cells; type: cell-based
Experimental: as §1, §3
To provide a second measure of intrinsic activity, the ability of SERMs to modulate intracellular levels of cAMP in intact cells was examined (Figure 6). CBRs couple to Gi/Go-proteins, and thus cannabinoid agonists inhibit activity of the downstream intracellular effector adenylyl cyclase, reducing intracellular cAMP levels.

[7] = target: T2, human cannabinoid type-2 receptors (hCB2); experiment: Antagonism of CP-55,940 inhibition of adenylyl cyclase, intact CHO-hCB2 cells; type: cell-based
Experimental: as §1, §2, §3, §4

T1 sequence (P21554 whole entry): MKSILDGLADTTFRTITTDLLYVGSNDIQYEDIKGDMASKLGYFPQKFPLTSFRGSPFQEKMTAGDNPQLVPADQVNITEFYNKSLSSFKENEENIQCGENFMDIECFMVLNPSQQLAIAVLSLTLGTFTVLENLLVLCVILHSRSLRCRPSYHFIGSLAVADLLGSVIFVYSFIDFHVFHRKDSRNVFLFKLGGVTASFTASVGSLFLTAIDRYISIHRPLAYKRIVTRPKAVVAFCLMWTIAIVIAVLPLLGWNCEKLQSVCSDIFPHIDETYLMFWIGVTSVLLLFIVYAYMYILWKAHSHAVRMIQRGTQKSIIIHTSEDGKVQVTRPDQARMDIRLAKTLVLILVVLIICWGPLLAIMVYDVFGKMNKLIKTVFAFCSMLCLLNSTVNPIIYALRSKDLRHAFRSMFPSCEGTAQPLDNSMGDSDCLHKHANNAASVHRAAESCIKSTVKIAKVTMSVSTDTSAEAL
T2 sequence (P34972 whole entry): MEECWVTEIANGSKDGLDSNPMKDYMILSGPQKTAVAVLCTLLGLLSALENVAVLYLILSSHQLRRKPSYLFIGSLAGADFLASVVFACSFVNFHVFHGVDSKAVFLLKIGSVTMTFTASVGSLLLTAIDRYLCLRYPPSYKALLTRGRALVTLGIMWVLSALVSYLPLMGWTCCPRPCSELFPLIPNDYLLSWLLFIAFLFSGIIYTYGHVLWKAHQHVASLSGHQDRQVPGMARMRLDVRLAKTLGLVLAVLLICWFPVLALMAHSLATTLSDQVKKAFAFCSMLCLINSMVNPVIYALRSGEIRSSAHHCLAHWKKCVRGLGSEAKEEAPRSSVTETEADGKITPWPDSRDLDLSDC

Cc1c(C(=O)NN2CCOCC2)nn(-c2ccc(Cl)cc2Cl)c1-c1ccc(I)cc1 [AM-281]
fold decrease in potency of CP-55,940, CHO-hCB1 ([1]; AM-281 1 μM pre-incubation): 16 fold | IMAX of CP-55,940 after pre-incubation with the drug ([1]; CHO-hCB1 cells, pre-incubation 30 min: OSP, NAF, BAZ 10 μM, RAL 2 μM, AM-281 1 μM): 35.7 ± 0.9% | Kb ([1]; calculated from shift of CP-55,940 curve, intact CHO-hCB1 cells, read-out: Kb (antagonist dissociation constant), CHO-hCB1): 155 nM | pKb, CHO-hCB1 ([1]; intact CHO-hCB1 cells, mean ± SEM): 6.810 ± 0.061^a

CC1=C(c2ccc(O)cc2)[C@H](c2ccc(OCCN3CCCCC3)cc2)Oc2cc(O)ccc21 [acolbifene]
displacement of [3H]CP-55,940 from hCB2Rs [2]: fails to displace; also recorded: did not produce any displacement | displacement of [3H]CP-55,940 from hCB1Rs [3]: fails to displace; also recorded: did not produce any displacement

CC/C(=C(\c1ccc(O)cc1)c1ccc(OCCNC)cc1)c1ccccc1 [ENDX, endoxifen]
displacement of [3H]CP-55,940 from hCB1Rs [3]: approximately 50%

Oc1ccc2c(c1)CC[C@H](c1ccccc1)[C@@H]2c1ccc(OCCN2CCCC2)cc1 [LAS, lasofoxifene]
intrinsic activity at hCB2Rs (partial or full inverse agonist) [4]: partial inverse agonist activity

4-hydroxy-tamoxifen [4OH-TX]
intrinsic activity at CB1Rs (partial or full inverse agonist) [5]: partial | displacement of [3H]CP-55,940 from hCB1Rs [3]: approximately 50%

CN(C)CCOc1ccc(/C(=C(/CCCl)c2ccccc2)c2ccc(O)cc2)cc1 [4OH-TOR, 4-hydroxy-toremifene]
displacement of [3H]CP-55,940 from hCB1Rs [3]: approximately 50%

COc1ccc(C(=O)c2c(C)n(CCN3CCOCC3)c3cc(I)ccc23)cc1 [AM-630]
reduction of G-protein activity, hCB2Rs ([4]; CHO-hCB2 membranes, 10 μM): 34% | EMAX, Intracellular [3H]cAMP ([6]; elevation of cAMP): 214 ± 6.5^b % | EC50 ([6]; increase of cAMP, 10 μM forskolin, read-out: EC50, Intracellular [3H]cAMP): 398 nM | pEC50, Intracellular [3H]cAMP ([6]; mean ± SEM): 6.40 ± 0.096^c | fold parallel shift-to-the-right of CP-55,940 concentration-effect curve, CHO-hCB2 ([7]; AM-630 1 μM pre-incubation): 33 fold | IMAX of CP-55,940 after pre-incubation with the drug ([7]; CHO-hCB2 cells, pre-incubation 30 min: OSP, NAF 10 μM, RAL, BAZ 2 μM, AM-630 1 μM): 31.7 ± 0.3% | Kb ([7]; calculated from shift of CP-55,940 curve, intact CHO-hCB2 cells, read-out: Kb (antagonist dissociation constant), CHO-hCB2): 55.4 nM | pKb, CHO-hCB2 ([7]; intact CHO-hCB2 cells, mean ± SEM): 7.26 ± .064^b

CC(C)N1CCN(c2ccc(C(=O)c3c(-c4ccc(O)cc4)sc4cc(O)ccc34)cc2)CC1 [Y-134]
intrinsic activity at hCB2Rs (partial or full inverse agonist) [4]: partial inverse agonist activity | intrinsic activity at CB1Rs (partial or full inverse agonist) [5]: partial
